The assay concerns the target T1, human recombinant mGluR5 (Homo sapiens, UniProt P41594).
T1 construct: expressed in transfected cells; host or cells: HEK 293 cell line, cultured with tetracycline, hygromycin and geneticin
The assay is described as follows: Positive modulation of mGluR5, calcium based FLIPR assay. As to conditions: EC50 of the modulation; HEK 293 cell line expressing human recombinant mGluR5; peak height of Ca release fluorescence signal after glutamate at approximately 5% basal stimulation. The protocol:
The positive modulation of mGluR5 is measured in a HEK 293 cell line expressing human recombinant mGluR5 and is detected with calcium based FLIPR assay. The cells are cultured with DMEM supplemented with 10% FCS, 2 μg/mL tetracycline, 100 μg/mL hygromycin and 500 μg/mL gneticin. The cell culture media is exchanged for tetracycline-free cell culture media 3-7 days before the assay. One day before the assay the cell culture medium is exchanged to DMEM without glutamine and phenol red and supplemented with 10% FCS, 100 μg/mL hygromycin and 500 μg/mL geneticin. On the assay day, the medium of the subconfluent cultures is removed and the cells are detached by addition of 2.5 ml EDTA (0.02%) per 175 cm2 culture flask for 1 minute. The cells are resuspend in Ringer solution (140 mM NaCl, 5 mM KCl, 2.5 mM CaCl2, 1.5 mM MgCl2, 5 mM Glucose, 10 mM Hepes; adjusted to pH 7.4 with NaOH), pooled and Ringer solution added to adjust the volume to 50 mL. The cell suspension is centrifuged for […] at 1500 U/min (425 g). The supernatant is removed and the cells washed a second time with 50 ml fresh Ringer solution and centrifuged again as before. The supernatant is again removed and the pellet resuspended in Ringer solution to 1,000,000 cells/ml (1×10^6 cells/mL). The cells are plated onto BD BioCoat Poly-D-Lysine 384 well plates (20.000 cells/well; 20 μl/well). The lid covered plates are then incubated until use at 37° C./10% CO2. For dye loading, 20 μl of Calcium-4 assay kit solution (prepared according to the manufacturer's description in Ringer solution) are added to the cells and the plates are incubated for […] 37° C. and then […] at room temperature.
Controls, Compound dilution and assay execution:
Each assay plate contained wells with “high” and “low” controls:
Low controls 1% DMSO/ringer solution+basal glutamate activation (defined as 100% CTL).
High controls 10 μM CDPPB+basal glutamate activation (defined as 200% CTL).
Test compounds are dissolved and diluted in DMSO to 100-fold the desired concentrations. In a second step, the compounds are diluted in Ringer solution such that the compounds are 4-fold more concentrated than the desired final assay concentration. The final DMSO concentration was 1%.
20 μl of each compound solution are then transferred to the assay plate and the Ca2+ kinetic is measured to determine any intrinsic compound activity. After 5 mM incubation in the FLIPR device, the second stimulation with 20 μl of glutamate in Ringer solution (glutamate concentration adjusted to approximately 5% basal stimulation of the maximal possible glutamate effect) is added and the kinetic Ca2+ response of the wells was measured for the modulation effect.
The peak height of the Ca release related fluorescence signal (9-66) is used for the EC50. The EC50 of the modulation is calculated over a nonlinear regression with GraphPad Prism (Table 1).

This is an account of results in patent publication US8846948B2, “Compounds” (Boehringer Ingelheim International GmbH, priority 2011, dated 2014).

Usually EC50 stands for the concentration giving half of the maximal effect.

T1 sequence (P41594 21-1212): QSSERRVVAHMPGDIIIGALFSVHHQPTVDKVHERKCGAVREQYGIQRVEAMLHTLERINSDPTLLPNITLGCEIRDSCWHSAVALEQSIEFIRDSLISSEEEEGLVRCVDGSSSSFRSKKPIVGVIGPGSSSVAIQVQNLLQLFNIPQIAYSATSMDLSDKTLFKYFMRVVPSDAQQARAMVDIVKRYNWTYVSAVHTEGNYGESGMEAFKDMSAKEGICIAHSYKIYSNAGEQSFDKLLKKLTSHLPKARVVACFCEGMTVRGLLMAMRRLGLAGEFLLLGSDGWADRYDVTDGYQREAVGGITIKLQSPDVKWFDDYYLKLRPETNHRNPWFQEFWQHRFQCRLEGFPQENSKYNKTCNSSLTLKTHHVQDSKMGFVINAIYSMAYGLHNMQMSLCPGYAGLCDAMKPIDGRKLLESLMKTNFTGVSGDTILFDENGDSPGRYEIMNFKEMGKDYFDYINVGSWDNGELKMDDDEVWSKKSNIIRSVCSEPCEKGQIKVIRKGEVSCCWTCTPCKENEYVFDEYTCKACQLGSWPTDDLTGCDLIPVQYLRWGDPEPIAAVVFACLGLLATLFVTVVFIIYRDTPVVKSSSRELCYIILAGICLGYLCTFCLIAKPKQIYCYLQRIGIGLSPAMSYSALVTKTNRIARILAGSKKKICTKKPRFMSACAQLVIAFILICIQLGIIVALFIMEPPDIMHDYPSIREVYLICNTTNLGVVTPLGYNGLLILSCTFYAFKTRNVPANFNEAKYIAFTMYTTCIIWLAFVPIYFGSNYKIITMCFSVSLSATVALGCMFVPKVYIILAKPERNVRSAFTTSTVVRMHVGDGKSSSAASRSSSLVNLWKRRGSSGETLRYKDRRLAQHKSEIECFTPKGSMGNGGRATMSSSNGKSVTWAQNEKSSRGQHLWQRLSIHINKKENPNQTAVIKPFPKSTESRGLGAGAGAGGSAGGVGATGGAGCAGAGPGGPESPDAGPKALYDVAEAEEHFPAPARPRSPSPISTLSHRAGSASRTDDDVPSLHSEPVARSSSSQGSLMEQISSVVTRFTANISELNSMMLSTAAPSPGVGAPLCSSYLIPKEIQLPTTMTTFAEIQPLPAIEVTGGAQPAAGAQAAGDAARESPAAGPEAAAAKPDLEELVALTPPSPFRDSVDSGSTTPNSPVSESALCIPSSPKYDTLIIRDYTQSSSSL

In the case of `COc1cc(-c2cn(CC(=O)N3CCN(c4ncccn4)CC3)c(-c3ccccc3)n2)ccc1C` [Example 7.03.12.], the EC50 was found to be 29 nM.
Then `COc1ccc(-c2cn(CC(=O)N3CCN(c4ccccn4)CC3)c(-c3ccccc3)n2)cc1` [Example 7.02.01., 2-[4-(4-Methoxy-phenyl)-2-phenyl-imidazol-1-yl]-1-(4-pyridin-2-yl-piperazin-1-yl)-ethanone], with 464 nM; and `COc1cc(-c2cn(CC(=O)N3CCN(c4ncccn4)CC3)c(-c3ccccc3)n2)ccc1F` [Example 7.03.17.], with 40 nM.
Then `Cc1ccc(-c2cn(CC(=O)N3CCN(c4ncccn4)CC3)c(-c3ccccc3)n2)cc1` [Example 7.03.02.], with 67 nM.
